Measured values reported in ChEMBL document CHEMBL1201862, “PubChem BioAssay data set” (2004).
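96-well plates; 48 h exposure; 5 concentrations. Endpoints by linear interpolation between flanking doses. Not reached: highest tested concentration assigned. Abbreviation: GI50, concentration required for 50% inhibition of growth.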 Calls of active or inactive are those of the source. No stated cut-off is given here; in the data, active = GI50 up to about 1.1 µM and inactive = higher.

Experiments:
Assay in all cases: NCI-60 cell line screen, 48 h
CAKI-1 = system: CAKI-1
CCRF-CEM = system: CCRF-CEM
COLO 205 = system: COLO 205
DU-145 = system: DU-145
HCT-116 = system: HCT-116
HL-60 = system: HL-60
HOP-62 = system: HOP-62
K562 = system: K562
MDA-MB-435 = system: MDA-MB-435
MDA-N = system: MDA-N
OVCAR-5 = system: OVCAR-5
SNB-75 = system: SNB-75
T47D = system: T47D
U-251 = system: U-251
UACC-62 = system: UACC-62
HOP-92 = system: HOP-92
SK-MEL-28 = system: SK-MEL-28
NCI-H460 = system: NCI-H460

`N#Cc1c(C#N)c(-c2ccccc2)n(-c2ccccc2)c1N` was tested, and the GI50 (CAKI-1) was > 100 µM (inactive), the GI50 (CCRF-CEM) was 87.5 µM (inactive) and the GI50 (COLO 205) was > 100 µM (inactive). For the same molecule, the GI50 (DU-145) was 85.7 µM (inactive), the GI50 (HCT-116) was 5.51 µM (inactive) and the GI50 (HL-60) was > 100 µM (inactive). The GI50 (HOP-62) was 84.9 µM (inactive), the GI50 (K562) was 19.7 µM (inactive) and the GI50 (MDA-MB-435) was > 100 µM (inactive). The GI50 (MDA-N) was > 100 µM (inactive), the GI50 (OVCAR-5) was > 100 µM (inactive) and the GI50 (SNB-75) was 1.27 µM (inactive). The GI50 (T47D) was 6.52 µM (inactive), the GI50 (U-251) was 33.4 µM (inactive) and the GI50 (UACC-62) was 69.5 µM (inactive).

In the case of `CCC1CC(C)C(O)/C=C/C=C/CC(C)OC(=O)CC(O)C(OC)C1OC1OC(C)CC(O)(C(C)=O)C1O` (centres undefined), the GI50 (CAKI-1) is reported as 13.1 µM (inactive), the GI50 (CCRF-CEM) is reported as 46.5 µM (inactive) and the GI50 (COLO 205) is reported as 63.1 µM (inactive). For the same molecule, the GI50 (DU-145) was 96.6 µM (inactive), the GI50 (HCT-116) was > 100 µM (inactive) and the GI50 (HL-60) was 21.8 µM (inactive). For the same molecule, the GI50 (HOP-62) was 39.7 µM (inactive), the GI50 (HOP-92) was > 100 µM (inactive) and the GI50 (MDA-MB-435) was > 100 µM (inactive). The GI50 (MDA-N) was 36.4 µM (inactive), the GI50 (OVCAR-5) was > 100 µM (inactive) and the GI50 (SK-MEL-28) was > 100 µM (inactive). The GI50 (SNB-75) was 15.5 µM (inactive), the GI50 (T47D) was 51.4 µM (inactive) and the GI50 (U-251) was 60.4 µM (inactive). The GI50 (UACC-62) was > 100 µM (inactive).

For `COC(=O)c1ccccc1C1=C([N+](=O)[O-])C(c2cccc(Br)c2)C(C#N)=C(N)O1` (centres undefined), the GI50 (CCRF-CEM) was 20.8 µM (inactive), the GI50 (COLO 205) was 33 µM (inactive) and the GI50 (DU-145) was 32.3 µM (inactive). The GI50 (HCT-116) was 31.5 µM (inactive), the GI50 (HL-60) was 29 µM (inactive) and the GI50 (HOP-62) was 33 µM (inactive). The GI50 (HOP-92) was 21.5 µM (inactive), the GI50 (K562) was 19.9 µM (inactive) and the GI50 (MDA-MB-435) was 22.7 µM (inactive). For the same molecule, the GI50 (MDA-N) was 44.6 µM (inactive), the GI50 (NCI-H460) was 41.3 µM (inactive) and the GI50 (OVCAR-5) was > 100 µM (inactive). The GI50 (SK-MEL-28) was 52.6 µM (inactive), the GI50 (SNB-75) was 25.4 µM (inactive) and the GI50 (T47D) was 28.3 µM (inactive). For the same molecule, the GI50 (U-251) was > 100 µM (inactive) and the GI50 (UACC-62) was 21 µM (inactive).

For `Nc1cnc(Nc2cccc3ccccc23)o1`, the GI50 (CAKI-1) was > 10 µM (inactive), the GI50 (CCRF-CEM) was > 10 µM (inactive) and the GI50 (COLO 205) was > 10 µM (inactive). For the same molecule, the GI50 (DU-145) was > 10 µM (inactive), the GI50 (HCT-116) was > 10 µM (inactive) and the GI50 (HL-60) was > 10 µM (inactive). For the same molecule, the GI50 (HOP-62) was > 10 µM (inactive), the GI50 (K562) was > 10 µM (inactive) and the GI50 (MDA-MB-435) was > 10 µM (inactive). The GI50 (MDA-N) was > 10 µM (inactive), the GI50 (NCI-H460) was > 10 µM (inactive) and the GI50 (SK-MEL-28) was > 10 µM (inactive). The GI50 (SNB-75) was > 10 µM (inactive), the GI50 (T47D) was > 10 µM (inactive) and the GI50 (U-251) was > 10 µM (inactive). For the same molecule, the GI50 (UACC-62) was > 10 µM (inactive).

In the case of `COc1cc(CC2C(=O)OCC2Cc2ccc(OC)c(OC)c2)ccc1O` (centres undefined), the GI50 (CAKI-1) is reported as > 100 µM (inactive), the GI50 (COLO 205) is reported as > 100 µM (inactive) and the GI50 (DU-145) is reported as > 100 µM (inactive). For the same molecule, the GI50 (HCT-116) was > 100 µM (inactive), the GI50 (HL-60) was > 100 µM (inactive) and the GI50 (HOP-62) was > 100 µM (inactive). For the same molecule, the GI50 (HOP-92) was 29.5 µM (inactive), the GI50 (MDA-MB-435) was > 100 µM (inactive) and the GI50 (MDA-N) was > 100 µM (inactive). For the same molecule, the GI50 (NCI-H460) was > 100 µM (inactive), the GI50 (OVCAR-5) was > 100 µM (inactive) and the GI50 (SK-MEL-28) was > 100 µM (inactive). For the same molecule, the GI50 (SNB-75) was > 60.5 µM (inactive), the GI50 (T47D) was 28.6 µM (inactive) and the GI50 (U-251) was > 100 µM (inactive). The GI50 (UACC-62) was > 100 µM (inactive).

`Cn1c(=O)nc2n(CCO)ccnc-2c1=O` was tested, and the GI50 (CAKI-1) was > 100 µM (inactive), the GI50 (CCRF-CEM) was > 100 µM (inactive) and the GI50 (COLO 205) was > 100 µM (inactive). The GI50 (DU-145) was > 100 µM (inactive), the GI50 (HCT-116) was > 100 µM (inactive) and the GI50 (HOP-62) was > 100 µM (inactive). For the same molecule, the GI50 (HOP-92) was > 100 µM (inactive), the GI50 (K562) was > 100 µM (inactive) and the GI50 (MDA-MB-435) was > 100 µM (inactive). The GI50 (MDA-N) was > 100 µM (inactive), the GI50 (NCI-H460) was > 100 µM (inactive) and the GI50 (OVCAR-5) was > 100 µM (inactive). The GI50 (SK-MEL-28) was > 100 µM (inactive), the GI50 (SNB-75) was > 100 µM (inactive) and the GI50 (T47D) was > 100 µM (inactive). The GI50 (U-251) was > 100 µM (inactive) and the GI50 (UACC-62) was > 100 µM (inactive).

For `N#CCOc1ccc(/C=C/C(=O)c2ccc(Cl)cc2)cc1`, the GI50 (CCRF-CEM) was 26.5 µM (inactive), the GI50 (DU-145) was 66.4 µM (inactive) and the GI50 (HCT-116) was 6.65 µM (inactive). For the same molecule, the GI50 (HL-60) was 28.5 µM (inactive), the GI50 (HOP-62) was 25.2 µM (inactive) and the GI50 (HOP-92) was 32 µM (inactive). The GI50 (K562) was 26 µM (inactive), the GI50 (MDA-MB-435) was 28.8 µM (inactive) and the GI50 (MDA-N) was 32.4 µM (inactive). For the same molecule, the GI50 (NCI-H460) was 27.2 µM (inactive), the GI50 (OVCAR-5) was > 100 µM (inactive) and the GI50 (SK-MEL-28) was 33.7 µM (inactive). For the same molecule, the GI50 (SNB-75) was 19.5 µM (inactive), the GI50 (T47D) was 19.9 µM (inactive) and the GI50 (U-251) was 25.8 µM (inactive). For the same molecule, the GI50 (UACC-62) was 19 µM (inactive).

For `Cc1c(O)c(=O)ccn1CCc1c[nH]c2ccccc12`, the GI50 (CAKI-1) was 1.21 µM (inactive), the GI50 (COLO 205) was 12.6 µM (inactive) and the GI50 (DU-145) was 6.44 µM (inactive). The GI50 (HCT-116) was 6.61 µM (inactive), the GI50 (HL-60) was 19.4 µM (inactive) and the GI50 (HOP-62) was 8.75 µM (inactive). The GI50 (HOP-92) was 0.483 µM (active), the GI50 (K562) was 14.4 µM (inactive) and the GI50 (MDA-MB-435) was 17.2 µM (inactive). For the same molecule, the GI50 (MDA-N) was 23 µM (inactive), the GI50 (NCI-H460) was 4.11 µM (inactive) and the GI50 (OVCAR-5) was 14.6 µM (inactive). The GI50 (T47D) was 22.3 µM (inactive) and the GI50 (U-251) was 6.55 µM (inactive).

For `CCOC(=O)c1[nH]c(Br)c(-c2ccc(OC)c(OC)c2)c1Br`, the GI50 (CCRF-CEM) was 0.0173 µM (active), the GI50 (COLO 205) was 0.175 µM (active) and the GI50 (DU-145) was 0.0476 µM (active). The GI50 (HCT-116) was 0.0183 µM (active), the GI50 (HL-60) was 0.0679 µM (active) and the GI50 (HOP-62) was 0.0608 µM (active). For the same molecule, the GI50 (HOP-92) was 7.46 µM (inactive), the GI50 (K562) was 0.0121 µM (active) and the GI50 (MDA-MB-435) was 0.0091 µM (active). The GI50 (MDA-N) was 0.00567 µM (active), the GI50 (NCI-H460) was 0.766 µM (active) and the GI50 (OVCAR-5) was 5.27 µM (inactive). The GI50 (SK-MEL-28) was 0.0562 µM (active), the GI50 (SNB-75) was 0.0259 µM (active) and the GI50 (T47D) was 21 µM (inactive). The GI50 (U-251) was 0.0311 µM (active) and the GI50 (UACC-62) was 0.0418 µM (active).
